In patent US20120101032A1, “NOVEL MACROCYCLIC INHIBITORS OF HEPATITIS C VIRUS REPLICATION” (priority 2010, published 2012) one finds EC50 and IC50 data, which are given here for 16 compounds.

Each structure is given as a SMILES string. Where two headings read alike, the source gives them in different places.

For one assay, the system named is hepatitis C replicon. Briefly: hepatitis C replicon EC50 assay. It is filed as cell-based. To be noted: Hepatitis C virus. From the text:
NS3-NS4 inhibition activity can be determined using known assay methods.

The target in a further assay is NS3/NS4 complexes (Hepatitis C virus genotype 1a, UniProt P27958). The experiment in a line: biochemical. To be noted: NS3-NS4 activity; 23° C., pH 7.5, 25 μM NS4A peptide; read-out: IC50. Summed up: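 Read-outs are IC50 for inhibition of the NS3/NS4 complex and EC50 in an HCV replicon system. Biochemical runs use 23° C. and a 50 mM Tris-HCl (pH 7.5) buffer with 15% glycerol, 10 mM DTT, 0.6 mM LDAO and 25 μM NS4A peptide.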
NS3/NS4 complexes, sequence (P27958 1027-1657, one chain of several): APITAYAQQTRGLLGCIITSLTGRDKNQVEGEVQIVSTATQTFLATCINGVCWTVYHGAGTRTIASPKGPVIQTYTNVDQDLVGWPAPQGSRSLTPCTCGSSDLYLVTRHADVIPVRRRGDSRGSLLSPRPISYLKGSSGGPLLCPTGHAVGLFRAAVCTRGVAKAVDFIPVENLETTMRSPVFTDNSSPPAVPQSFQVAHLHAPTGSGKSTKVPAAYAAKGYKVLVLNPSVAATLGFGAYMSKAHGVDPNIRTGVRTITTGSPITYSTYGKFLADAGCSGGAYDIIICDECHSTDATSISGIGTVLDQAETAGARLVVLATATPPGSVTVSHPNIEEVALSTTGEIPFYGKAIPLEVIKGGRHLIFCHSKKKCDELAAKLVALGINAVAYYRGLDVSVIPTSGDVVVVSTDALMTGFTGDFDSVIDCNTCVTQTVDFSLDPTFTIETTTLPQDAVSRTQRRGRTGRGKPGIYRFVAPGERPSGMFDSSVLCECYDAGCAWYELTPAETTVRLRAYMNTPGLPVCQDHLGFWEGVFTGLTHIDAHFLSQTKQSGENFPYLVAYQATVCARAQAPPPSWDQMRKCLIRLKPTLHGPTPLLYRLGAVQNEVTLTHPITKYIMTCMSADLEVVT

The mark [1] stands for this setting: hepatitis C replicon, read-out: EC50.

As for `CC(C)(C)OC(=O)N[C@H]1CCCCC/C=C\[C@@H]2C[C@@]2(C(=O)NS(=O)(=O)C2(C)CC2)NC(=O)[C@@H]2C[C@@H](Oc3ncnc4c3CCCC4)CN2C1=O` [Compound 301], the EC50 (commonly the concentration that produces a half-maximal response) in the assay with hepatitis C replicon (setting [1]) is 10 to 100 nM. Further, the IC50 (as a rule, the point on the concentration scale where inhibition reaches its midpoint) on NS3/NS4 complexes was less than 10 nM.
Consider `CC(C)(C)OC(=O)N[C@H]1CCCCC/C=C\[C@@H]2C[C@@]2(C(=O)NS(=O)(=O)C2(C)CC2)NC(=O)[C@@H]2C[C@@H](Oc3nc(-c4ccccc4)nc4c3CCCC4)CN2C1=O` [Compound 302], for which the EC50 with hepatitis C replicon (setting [1]) is less than 10 nM. Also, the concentration for half-maximal inhibition (IC50) at NS3/NS4 complexes was less than 10 nM.
`CC(C)c1csc(-c2nc3c(c(O[C@@H]4C[C@H]5C(=O)N[C@]6(C(=O)NS(=O)(=O)C7(C)CC7)C[C@H]6/C=C\CCCCC[C@H](NC(=O)OC(C)(C)C)C(=O)N5C4)n2)CCCC3)n1` [Compound 303]: the EC50 in the assay on hepatitis C replicon was 10 to 100 nM. Further, the IC50 on NS3/NS4 complexes lay in the range of 10 to 100 nM.
In turn, `CC(C)c1csc(-c2nc3c(c(O[C@@H]4C[C@H]5C(=O)N[C@]6(C(=O)NS(=O)(=O)C7(C)CC7)C[C@H]6/C=C\CCCCC[C@H](N)C(=O)N5C4)n2)CCCC3)n1` [Compound 304] showed an EC50 in the assay with hepatitis C replicon of more than 100 nM. Besides, the IC50 on NS3/NS4 complexes lay in the range of 10 to 100 nM.
`CC(C)(C)OC(=O)N[C@H]1CCCCC/C=C\[C@@H]2C[C@@]2(C(=O)NS(=O)(=O)C2(C)CC2)NC(=O)[C@@H]2C[C@@H](Oc3cc(-c4ccccc4)nc4c3CCCC4)CN2C1=O` [Compound 402]: in the assay on hepatitis C replicon, the EC50 is less than 10 nM. Also, the IC50 at NS3/NS4 complexes is less than 10 nM.
With `CC(C)(C)OC(=O)N[C@H]1CCCCC/C=C\[C@@H]2C[C@@]2(C(=O)NS(=O)(=O)C2(C)CC2)NC(=O)[C@@H]2C[C@@H](Oc3ccnc4c3CCCC4)CN2C1=O` [Compound 403], in the assay with hepatitis C replicon, the EC50 lay in the range of 10 to 100 nM. For the same compound, the IC50 on NS3/NS4 complexes is less than 10 nM.
With `CC(C)(C)OC(=O)N[C@H]1CCCCC/C=C\[C@@H]2C[C@@]2(C(=O)NS(=O)(=O)C2(C)CC2)NC(=O)[C@@H]2C[C@@H](Oc3nc(-c4ccccc4)cc4c3CCCC4)CN2C1=O` [Compound 404], the EC50 with hepatitis C replicon (setting [1]) was more than 100 nM. For the same compound, the IC50 on NS3/NS4 complexes was less than 10 nM.
In the case of `CC(C)c1csc(-c2cc3c(c(O[C@@H]4C[C@H]5C(=O)N[C@]6(C(=O)NS(=O)(=O)C7(C)CC7)C[C@H]6/C=C\CCCCC[C@H](NC(=O)OC(C)(C)C)C(=O)N5C4)n2)CCCC3)n1` [Compound 405], the EC50 with hepatitis C replicon (setting [1]) is more than 100 nM. Further, the IC50 on NS3/NS4 complexes was less than 10 nM.
As to `CC(C)c1csc(-c2cc(O[C@@H]3C[C@H]4C(=O)N[C@]5(C(=O)NS(=O)(=O)C6(C)CC6)C[C@H]5/C=C\CCCCC[C@H](NC(=O)OC(C)(C)C)C(=O)N4C3)c3c(n2)CCCC3)n1` [Compound 406], the EC50 in the assay on hepatitis C replicon (setting [1]) is less than 10 nM. Also, the IC50 at NS3/NS4 complexes was less than 10 nM.
For the compound `COc1ccc2c(O[C@@H]3C[C@H]4C(=O)N[C@]5(C(=O)NS(=O)(=O)C6(C)CC6)C[C@H]5/C=C\CCCCC[C@H](NC(=O)OC(C)(C)C)C(=O)N4C3)cc(C(C)C)nc2c1C` [Compound 501], the EC50 with hepatitis C replicon (setting [1]) is less than 10 nM. Also, at NS3/NS4 complexes, the IC50 is less than 10 nM.
On to `COc1ccc2c(O[C@@H]3C[C@H]4C(=O)N[C@]5(C(=O)NS(=O)(=O)C6(C)CC6)C[C@H]5/C=C\CCCCC[C@H](N)C(=O)N4C3)cc(C(C)C)nc2c1C` [Compound 502], for which the EC50 with hepatitis C replicon (setting [1]) was more than 100 nM. On NS3/NS4 complexes, the IC50 was less than 10 nM.
As for `CC(C)c1csc(-c2cc(O[C@@H]3C[C@H]4C(=O)N[C@]5(C(=O)NS(=O)(=O)C6(C)CC6)C[C@H]5/C=C\CCCCC[C@H](NC(=O)OC(C)(C)C)C(=O)N4C3)ccn2)n1` [Compound 601], the EC50 in the assay on hepatitis C replicon (setting [1]) was less than 10 nM. The IC50 at NS3/NS4 complexes is less than 10 nM.
As for `CC(C)c1csc(-c2cc(O[C@@H]3C[C@H]4C(=O)N[C@]5(C(=O)NS(=O)(=O)C6(C)CC6)C[C@H]5/C=C\CCCCC[C@H](N)C(=O)N4C3)ccn2)n1` [Compound 602], the EC50 in the assay with hepatitis C replicon (setting [1]) was more than 100 nM. The IC50 at NS3/NS4 complexes is less than 10 nM.
Take `CC(C)(C)OC(=O)N[C@H]1CCCCC/C=C\[C@@H]2C[C@@]2(C(=O)NS(=O)(=O)C2(C)CC2)NC(=O)[C@@H]2C[C@@H](Oc3nc4cccc(-c5nc(C6CCCCC6)cs5)c4nc3C(F)(F)F)CN2C1=O` [Compound 701]: the EC50 with hepatitis C replicon (setting [1]) was more than 100 nM. For the same compound, the IC50 on NS3/NS4 complexes is less than 10 nM.
With `CC(C)(C)OC(=O)N[C@H]1CCCCC/C=C\[C@@H]2C[C@@]2(C(=O)NS(=O)(=O)C2(C)CC2)NC(=O)[C@@H]2C[C@@H](Oc3nc4c(-c5nc(C6CCCCC6)cs5)cccc4nc3C(F)(F)F)CN2C1=O` [Compound 702], in the assay on hepatitis C replicon (setting [1]), the EC50 is less than 10 nM. Also, the concentration for half-maximal inhibition (IC50) at NS3/NS4 complexes was less than 10 nM.
With `Cc1nc2cccc(-c3nc(C4CCCCC4)cs3)c2nc1O[C@@H]1C[C@H]2C(=O)N[C@]3(C(=O)NS(=O)(=O)C4(C)CC4)C[C@H]3/C=C\CCCCC[C@H](NC(=O)OC(C)(C)C)C(=O)N2C1` [Compound 703], in the assay with hepatitis C replicon (setting [1]), the EC50 was less than 10 nM. Also, the IC50 on NS3/NS4 complexes was less than 10 nM.
